Like-named read-outs stand apart in the source and are kept apart here.
Legend:
MRC-5 = assay: Cytotoxicity assay (MTT), 6 days; format: cell-based; settings: Homo sapiens, MRC5, 144 h, 6 days of treatment, read-out: Toxicity 6d (IC 50, μM) MRC-5
Outline: (§1)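 Cells seeded 24 h before treatment with 0, 1, 10, 17.5, 25 and 50 µM compound (1% DMSO), in triplicate. After 6 days, 0.5 mg/ml MTT for 3 h at 37 °C, formazan dissolved in DMSO, absorbance read at 550 nm. Surviving fraction and IC50 calculated.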

[1] = tested on: HCT116 colon adenocarcinoma; assay: Cytotoxicity assay (MTT), 6 days; format: cell-based, human; settings: 6 days of treatment, read-out: Toxicity 6d (IC 50, μM) HCT116
Outline: as §1

HCT116 cells = assay: Anchorage-independent growth assay (soft agar / Matrigel); format: cell-based, human; settings: for effect on anchorage-independent growth: HCT116; for IC50: Homo sapiens, HCT-116, 168 h, HCT116, 3-dimensional growth, 1 week
Experimental: In order to evaluate the effect of the compounds on the capacity of tumor cells to grow without anchorage, HCT116 cells were seeded either in agar or in Matrigel (BD, France). For 3D growth experiment in soft agar in 24-well plates, 5.10^3 HCT116 cells were resuspended in 250 μl of complete medium containing 0.3% soft-agar (Difco) and different concentrations of compound (0.1, 1, 10, 17.5, 25 and 50 μM). Cells were then poured on a solidified layer of medium containing 0.5% of soft-agar plus the compound at the same concentration than in the upper layer. Cells were incubated at 37° C. for 1 week before they were analysed using a phase contrast microscope (Nikon). For 3D growth experiment in Matrigel, 10^4 HCT116 cells were resuspended in 300 μl of complete medium containing 5 mg/ml Matrigel (BD, France) and different concentrations of compound (0.1, 1, 10, 17.5, 25 and 50 μM), and poured in 24-well plates. After solidification at 37° C. for 15 min., complete medium containing the compound was added to each well. Cells were incubated for 1 week before they were collected using Matrisperse (BD, France) according to the manufacturer's instructions. After recovery, alive cells were counted with trypan blue exclusion.

NIH3T3 cells = assay: Colony formation assay with constitutively activated Ras (RasV12) and Rac (RacV12); format: cell-based, mouse; set-up: key to Colony formation: −: no effect of the compound was observed; +: an effect of the compound was observed
Outline: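 Ras and Rac signalling were measured with reporter systems. For colony formation, NIH3T3 cells were transfected with RasV12 or RacV12 plus neomycin plasmids, then grown 2-3 weeks in 400 μg/ml geneticin with compound at 1, 10, 17.5, 25 or 50 μM. Fuchsin-stained colonies of ≥50 cells were counted.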

MDA231 = assay: Cytoskeleton analysis, actin staining (FITC-phalloidin); format: cell-based, human
Experimental: (§2) Since major rearrangements of cytoskeleton are observed in tumor cells and since the small GTPases are known to regulate these events, analysis of actin cytoskeleton was performed. Subconfluent cells seeded onto coverslips were treated with different concentration of compound (1, 10, 17.5, 25 and 50 μM) or vehicle for 24 h, before being fixed in 4% formaldehyde for 15 min., permeabilized in 0.2% Triton X100 for 5 minutes and incubated in PowerBlock (Biogenex) for 10 min. Actin filaments were stained with 0.5 μg/ml fluorescein isothiocyanate (FITC)-labelled phalloidin for 1 hour. Analysis was performed using an inverted fluorescent microscope.

MMP-2 = assay: Gelatin zymography; format: cell-based, human; settings: MDA-MB-231 supernatant
Experimental: (§3) The activity of the metalloproteases MMP-2 and MMP-9 was assayed using gelatinolytic zymography according to Lambert (Surgery 1997). Briefly, MDA-MB-231 cells were incubated overnight in serum-free medium supplemented with ITS liquid supplement (Sigma) with different concentrations of compound (1, 10, 17.5, 25 and 50 μM). Supernatant was collected and concentrated with Ultrafree 30 kDA (Millipore). Equal amount of proteins, as determined by Bradford measurement, were loaded onto a 10% w/v polyacrylamide gel containing 1% gelatin and 0.1% SDS (Novex). After electrophoresis, gels were washed in Novex Zymogram Renaturing buffer for 30 min at room temperature and incubated overnight at 37° C. in Novex Zymogram developing buffer. Gels were stained in Coomassie Brilliant Blue G-250, and the gelatinolytic activity was visualized as a clear band against the blue background of the stained gelatin.

MMP-9 = assay: Gelatin zymography; format: cell-based, human; settings: MDA-MB-231 supernatant
Experimental: as §3

H460 = assay: Cytoskeleton analysis, actin staining (FITC-phalloidin); format: cell-based, human; settings: H460 tumor cells
Experimental: as §2

HCT116 = assay: as above; format: cell-based, human; settings: HCT116 tumor cells
Experimental: as §2

IC50 (HCT116 cells)	SMILES	IC50 (MRC-5)	IC50 [1]	IC50 ([1]; Homo sapiens, HCT-116, 144 h)	effect on anchorage-independent growth (HCT116 cells)	Colony formation (NIH3T3 cells)	Ras-dependent neoR clones formation (NIH3T3 cells; NIH3T3 transfected with RasVal12)	MDA-MB-231 spreading (MDA231)	Cell architecture modification actin staining MDA231 (MDA231; 24 h treatment)	concentration inhibiting MMP-2 in a dose-dependant manner (zymogram gel) (MMP-2)	concentration inhibiting MMP-9 in a dose-dependant manner (zymogram gel) (MMP-9)	concentration at which dose-dependant increase in spreading and disruption of cell-to-cell junctions was observed (H460)	concentration at which dose-dependant increase in spreading and disruption of cell-to-cell junctions was observed (HCT116)
< 1 µM	CCCc1c(OCCCCCOc2coc(CO)cc2=O)ccc(Cl)c1Cl [EH22900, 5-[5-(3,4-Dichloro-2-propylphenyloxy)pentyloxy]-2-(hydroxymethyl)-4H-pyran-4-one]	25 µM	10 µM	≤ 15 µM	strongest effect	+	inhibited	increased	cell spreading	5 µM	5 µM		
< 1 µM	C/C=C/c1oc(CO)cc(=O)c1OCCCCCOc1ccc(Cl)c(Cl)c1CCC [EH31101, (E)-3-[5-(3,4-Dichloro-2-propylphenyloxy)pentyloxy]-6-(hydroxymethyl)-2-(propen-1-yl)-4H-pyran-4-one]			30 µM	significant, although less severe, effect	−				0.1 µM	0.1 µM	25 µM	10 µM

Reference: patent US20050054629A1, “Compounds and methods of treating cell proliferative diseases” (priority 2002, published 2005)
